Our source for the Ki values is patent US20240239781A1, “1H-PYRAZOLE DERIVATIVES AS SIGMA LIGANDS” (ACONDICIONAMIENTO TARRASENSE, priority 2021, published 2024).

Molecules are shown by their SMILES.

The target of one assay is T1, human σ2/TMEM97 receptor (Homo sapiens, UniProt Q5BJF2).
T1 construct: expressed in transfected cells; host or cells: HEK-293
Put plainly: Binding assay to human σ2/TMEM97 receptor ([3H]-DTG, transfected HEK-293 membranes). To be noted: class scale, read-out: Binding σ-2 Ki. In short, it runs like this: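 Competition against 10 nM [3H]-DTG (Tris-HCl 50 mM, pH 8.0, 25 °C, 120 min) using 15 μg transfected HEK-293 membrane protein, with 10 μM haloperidol defining NSB. Bound radioactivity counted after filtration; results as single-point % inhibition (1 or 10 μM) or five-point Ki.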

The next assay addresses T2, human σ1 receptor (Homo sapiens, UniProt Q99720).
T2 construct: expressed in transfected cells; host or cells: HEK-293
The experiment in a line: Human σ1 receptor radioligand assay ([3H](+)-pentazocine, transfected HEK-293 membranes). The settings on record: class scale, read-out: Binding σ-1 Ki. The essentials: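 Compounds were tested at a single 1 or 10 μM concentration (% inhibition) or at five concentrations to give Ki. They competed with 5 nM [3H](+)-pentazocine for transfected HEK-293 membranes (7 μg) in 50 mM Tris-HCl pH 8 at 37° C for 120 minutes. Nonspecific binding was set with 10 μM haloperidol, and a filtration scintillation read-out was used.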

T1 sequence (Q5BJF2 whole entry): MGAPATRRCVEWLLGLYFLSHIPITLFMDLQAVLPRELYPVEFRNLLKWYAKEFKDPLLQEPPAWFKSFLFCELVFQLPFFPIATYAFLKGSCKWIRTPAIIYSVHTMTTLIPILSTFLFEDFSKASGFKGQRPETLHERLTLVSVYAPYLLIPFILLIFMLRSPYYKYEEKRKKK
T2 sequence (Q99720 whole entry): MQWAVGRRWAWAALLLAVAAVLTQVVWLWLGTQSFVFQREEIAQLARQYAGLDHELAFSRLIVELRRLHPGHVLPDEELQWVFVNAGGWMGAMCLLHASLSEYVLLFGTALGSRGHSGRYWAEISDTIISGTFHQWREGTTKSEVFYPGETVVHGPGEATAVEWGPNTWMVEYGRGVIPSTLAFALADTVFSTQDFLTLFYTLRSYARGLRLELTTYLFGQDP

For orientation: Ki means the equilibrium dissociation constant of an inhibitor or competing ligand from its target. With `Cc1cc(-c2nn(C)c(Cl)c2CN2C[C@@H](CNCCC(C)(C)C)[C@H](C)C2)no1` [Example 77, N-(((3R,4S)-1-((5-Chloro-1-methyl-3-(5-methylisoxazol-3-yl)-1H-pyrazol-4-yl)methyl)-4-methylpyrrolidin-3-yl)methyl)-3,3-dimethylbutan-1-amine], the values for the Ki on human σ2/TMEM97 receptor and at human σ1 receptor were less than 0.1 µM and 0.1 to 0.5 µM, respectively.
The like results for `Cc1cc(-c2nn(C)c(Cl)c2CN2C[C@H](CNCCC(C)(C)C)[C@@H](C)C2)no1` [Example 78, N-(((3S,4R)-1-((5-Chloro-1-methyl-3-(5-methylisoxazol-3-yl)-1H-pyrazol-4-yl)methyl)-4-methylpyrrolidin-3-yl)methyl)-3,3-dimethylbutan-1-amine] were, in that order, less than 0.1 µM and 0.1 to 0.5 µM.
In the case of `Cc1cc(-c2nn(C)c(Cl)c2CN2CCCCC(NCCN3CCCCC3)C2)no1` (stereo not shown) [Example 79, 1-((5-Chloro-1-methyl-3-(5-methylisoxazol-3-yl)-1H-pyrazol-4-yl)methyl)-N-(2-(piperidin-1-yl)ethyl)azepan-3-amine], the inhibitory constant (Ki) on human σ2/TMEM97 receptor is 0.1 to 0.5 µM; at human σ1 receptor it was greater than 1 µM.
The matching figures for `Cc1cc(-c2nn(C)c(Cl)c2CN2CCCCC(N(C)CCC(C)C)C2)no1` (stereo not shown) [Example 80, 1-((5-Chloro-1-methyl-3-(5-methylisoxazol-3-yl)-1H-pyrazol-4-yl)methyl)-N-isopentyl-N-methylazepan-3-amine]: 0.5 to 1 µM and 0.1 to 0.5 µM.
The like results for `Cc1cc(-c2nn(C)c(Cl)c2CN2CCCCC(N(C)CC3CCOCC3)C2)no1` (stereo not shown) [Example 81, 1-((5-Chloro-1-methyl-3-(5-methylisoxazol-3-yl)-1H-pyrazol-4-yl)methyl)-N-methyl-N-((tetrahydro-2H-pyran-4-yl)methyl)azepan-3-amine] were, in that order, 0.1 to 0.5 µM and 0.1 to 0.5 µM.
As to `Cc1cc(-c2nn(C)c(Cl)c2CN2CCCCC(N(C)CCN3CCCCC3)C2)no1` (stereo not shown) [Example 82, 1-((5-Chloro-1-methyl-3-(5-methylisoxazol-3-yl)-1H-pyrazol-4-yl)methyl)-N-methyl-N-(2-(piperidin-1-yl)ethyl)azepan-3-amine], the Ki on human σ2/TMEM97 receptor was 0.1 to 0.5 µM; on human σ1 receptor it was 0.5 to 1 µM.
The like results for `Cc1cc(-c2nn(C)c(Cl)c2C(=O)N2CCCC(CNCCC(C)(C)C)C2)no1` (stereo not shown) [Example 83, (5-Chloro-1-methyl-3-(5-methylisoxazol-3-yl)-1H-pyrazol-4-yl)(3-(((3,3-dimethylbutyl)amino)methyl)piperidin-1-yl)methanone] were, in that order, less than 0.1 µM and 0.5 to 1 µM.
The like results for `Cc1cc(-c2nn(C)c(Cl)c2C(=O)N2CCCCC(NCCC(C)C)C2)no1` (stereo not shown) [Example 84, (5-Chloro-1-methyl-3-(5-methylisoxazol-3-yl)-1H-pyrazol-4-yl)(3-(isopentylamino)azepan-1-yl)methanone] were, in that order, 0.1 to 0.5 µM and greater than 1 µM.
The like results for `Cc1cc(-c2nn(C)c(Cl)c2C(=O)N2CCCCC(NCCc3ccccc3)C2)no1` (stereo not shown) [Example 85, (5-Chloro-1-methyl-3-(5-methylisoxazol-3-yl)-1H-pyrazol-4-yl)(3-(phenethylamino)azepan-1-yl)methanone] were, in that order, 0.1 to 0.5 µM and greater than 1 µM.
With `Cc1cc(-c2nn(C)c(Cl)c2C(=O)N2CCCCC(NCc3ccccc3)C2)no1` (stereo not shown) [Example 86, (3-(Benzylamino)azepan-1-yl)(5-chloro-1-methyl-3-(5-methylisoxazol-3-yl)-1H-pyrazol-4-yl)methanone], the Ki at human σ2/TMEM97 receptor is 0.1 to 0.5 µM; on human σ1 receptor, greater than 1 µM.
In the case of `Cc1cc(-c2nn(C)c(Cl)c2C(=O)N2CCC3(CCN(CCC(C)(C)C)C3)CC2)no1` [Example 87, (5-Chloro-1-methyl-3-(5-methylisoxazol-3-yl)-1H-pyrazol-4-yl)(2-(3,3-dimethylbutyl)-2,8-diazaspiro[4.5]decan-8-yl)methanone], the inhibition constant Ki is less than 0.1 µM on human σ2/TMEM97 receptor and 0.5 to 1 µM on human σ1 receptor.
